In the NIST ThermoML archive (doi:10.1021/je700261b):
Numbers after ± are expanded uncertainties.

Conditions: Liquid

CCCCO [butan-1-ol]
Conditions | mass density [kg/m3]
342.86 K, 1026 kPa | 770.92 ± 0.47
342.86 K, 2007 kPa | 771.87 ± 0.48
342.86 K, 3003 kPa | 772.85 ± 0.49
342.86 K, 4051 kPa | 773.84 ± 0.49
342.86 K, 5008 kPa | 774.72 ± 0.5
342.86 K, 6023 kPa | 775.59 ± 0.51
342.86 K, 7010 kPa | 776.55 ± 0.52
342.86 K, 8000 kPa | 777.42 ± 0.53
342.86 K, 9001 kPa | 778.28 ± 0.54
342.86 K, 10005 kPa | 779.2 ± 0.55
342.86 K, 11006 kPa | 780.06 ± 0.56
342.86 K, 12010 kPa | 780.9 ± 0.57
342.86 K, 13033 kPa | 781.77 ± 0.58
342.86 K, 14017 kPa | 782.62 ± 0.59
342.86 K, 15001 kPa | 783.45 ± 0.6
342.86 K, 16009 kPa | 784.29 ± 0.61
342.86 K, 17016 kPa | 785.14 ± 0.62
342.86 K, 17991 kPa | 785.93 ± 0.63
342.86 K, 19023 kPa | 786.79 ± 0.64
342.86 K, 19999 kPa | 787.57 ± 0.65
342.86 K, 21000 kPa | 788.37 ± 0.66
342.86 K, 22003 kPa | 789.15 ± 0.67
342.86 K, 22989 kPa | 789.91 ± 0.68
342.86 K, 24004 kPa | 790.69 ± 0.69
342.86 K, 24621 kPa | 791.2 ± 0.7
352.79 K, 1020 kPa | 762.66 ± 0.47
352.79 K, 2014 kPa | 763.68 ± 0.48
352.79 K, 3007 kPa | 764.68 ± 0.49
352.79 K, 3998 kPa | 765.67 ± 0.5
352.79 K, 4998 kPa | 766.69 ± 0.51
352.79 K, 5997 kPa | 767.68 ± 0.52
352.79 K, 7006 kPa | 768.64 ± 0.53
352.79 K, 8005 kPa | 769.61 ± 0.54
352.79 K, 9007 kPa | 770.53 ± 0.55
352.79 K, 9997 kPa | 771.44 ± 0.56
352.79 K, 11008 kPa | 772.38 ± 0.57
352.79 K, 12000 kPa | 773.26 ± 0.58
352.79 K, 13043 kPa | 774.22 ± 0.59
352.79 K, 14002 kPa | 775.11 ± 0.6
352.79 K, 15000 kPa | 775.98 ± 0.61
352.79 K, 16000 kPa | 776.85 ± 0.62
352.79 K, 16992 kPa | 777.72 ± 0.63
352.79 K, 17988 kPa | 778.56 ± 0.64
352.79 K, 18994 kPa | 779.41 ± 0.65
352.79 K, 20012 kPa | 780.22 ± 0.66
352.79 K, 21003 kPa | 781.04 ± 0.67
352.79 K, 22010 kPa | 781.87 ± 0.69
352.79 K, 22971 kPa | 782.68 ± 0.7
352.79 K, 24021 kPa | 783.49 ± 0.71
352.79 K, 24573 kPa | 783.95 ± 0.71
362.67 K, 1043 kPa | 753.5 ± 0.48
362.67 K, 2116 kPa | 754.77 ± 0.49
362.67 K, 3026 kPa | 755.74 ± 0.5
362.67 K, 4013 kPa | 756.82 ± 0.5
362.67 K, 5024 kPa | 757.87 ± 0.51
362.67 K, 6047 kPa | 758.93 ± 0.52
362.67 K, 7014 kPa | 759.93 ± 0.53
362.67 K, 8012 kPa | 760.98 ± 0.54
362.67 K, 9025 kPa | 762.03 ± 0.56
362.67 K, 10015 kPa | 762.94 ± 0.57
362.67 K, 11002 kPa | 763.92 ± 0.58
362.67 K, 12002 kPa | 764.89 ± 0.59
362.67 K, 13011 kPa | 765.86 ± 0.6
362.67 K, 14011 kPa | 766.84 ± 0.61
362.67 K, 15014 kPa | 767.7 ± 0.62
362.67 K, 16006 kPa | 768.67 ± 0.63
362.67 K, 17009 kPa | 769.58 ± 0.64
362.67 K, 18008 kPa | 770.48 ± 0.65
362.67 K, 18993 kPa | 771.37 ± 0.67
362.67 K, 19990 kPa | 772.21 ± 0.68
362.67 K, 21007 kPa | 773.1 ± 0.69
362.67 K, 21997 kPa | 773.96 ± 0.7
362.67 K, 23014 kPa | 774.89 ± 0.71
362.67 K, 24000 kPa | 775.58 ± 0.72
362.67 K, 24563 kPa | 776.12 ± 0.73
